One data set concerns the target NPC1L1 (Homo sapiens, UniProt Q9UHC9). The following applies: prokaryotic screening method.
For data set [1] the following is noted: in vivo, cited from earlier work.
The test system of the next data set is C57B16 mice. To be noted: in vivo; cited from earlier work.

Chain of NPC1L1 (Q9UHC9 22-1359): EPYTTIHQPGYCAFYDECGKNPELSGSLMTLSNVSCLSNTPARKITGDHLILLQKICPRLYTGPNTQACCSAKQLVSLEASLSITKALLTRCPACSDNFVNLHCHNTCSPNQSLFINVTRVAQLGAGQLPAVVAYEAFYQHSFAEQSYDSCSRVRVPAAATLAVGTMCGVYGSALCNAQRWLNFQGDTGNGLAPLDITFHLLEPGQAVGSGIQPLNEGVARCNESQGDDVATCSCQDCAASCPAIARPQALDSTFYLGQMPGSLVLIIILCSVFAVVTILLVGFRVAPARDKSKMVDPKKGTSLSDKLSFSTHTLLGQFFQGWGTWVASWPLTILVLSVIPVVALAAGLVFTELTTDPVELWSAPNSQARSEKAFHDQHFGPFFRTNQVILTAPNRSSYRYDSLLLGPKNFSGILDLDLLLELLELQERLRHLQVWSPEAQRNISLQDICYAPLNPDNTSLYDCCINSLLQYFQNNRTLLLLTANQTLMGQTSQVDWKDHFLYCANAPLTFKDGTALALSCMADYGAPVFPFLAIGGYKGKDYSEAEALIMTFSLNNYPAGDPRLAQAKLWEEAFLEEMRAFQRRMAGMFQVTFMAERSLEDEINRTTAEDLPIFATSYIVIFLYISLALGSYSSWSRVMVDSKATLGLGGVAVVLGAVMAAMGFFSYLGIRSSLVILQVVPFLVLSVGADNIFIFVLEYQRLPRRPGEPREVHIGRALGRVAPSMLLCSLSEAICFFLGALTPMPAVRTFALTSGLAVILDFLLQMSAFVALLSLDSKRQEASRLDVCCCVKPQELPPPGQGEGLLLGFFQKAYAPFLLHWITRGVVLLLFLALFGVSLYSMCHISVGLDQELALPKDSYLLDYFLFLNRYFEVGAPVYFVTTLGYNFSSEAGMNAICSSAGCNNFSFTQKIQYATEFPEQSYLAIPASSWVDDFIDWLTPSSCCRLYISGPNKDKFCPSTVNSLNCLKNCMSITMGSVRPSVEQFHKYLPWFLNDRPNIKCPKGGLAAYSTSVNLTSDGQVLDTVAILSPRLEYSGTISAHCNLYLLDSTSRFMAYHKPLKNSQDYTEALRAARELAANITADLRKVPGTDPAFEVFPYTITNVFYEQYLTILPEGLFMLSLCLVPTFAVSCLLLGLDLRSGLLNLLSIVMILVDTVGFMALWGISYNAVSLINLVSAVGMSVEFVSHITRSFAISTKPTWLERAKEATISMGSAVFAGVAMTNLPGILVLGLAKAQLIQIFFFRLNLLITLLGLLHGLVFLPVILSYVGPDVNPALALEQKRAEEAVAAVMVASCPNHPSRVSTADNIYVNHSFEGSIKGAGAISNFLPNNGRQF

As for `CCCC(=O)C1(c2ccccc2)CCNCC1.Cl`, at NPC1L1, the NPC1L1 inhibitor identification result is listed as “inhibitor was identified”. On to `O=C1[C@H](CC[C@H](O)c2ccc(F)cc2)[C@@H](c2ccc(O)cc2)N1c1ccc(F)cc1` [Zetia®, 1-(4-fluorophenyl)-(3R)-[3-(4-fluorophenyl)-3(S)-hydroxypropyl]-4(S)-(4-hydroxyphenyl)-2-azetidinone], for which the “extensively metabolised to the pharmacologically active ezetimibe-glucuronide” value in data set [1] (po) is listed as > 80%. Also, in data set [1], the accumulation is recorded as ~2 fold and the “time at which total Zetia concentrations reach a maximum” value is 1 to 2 h. Take `COc1ccc2[nH]cc(CCNC(C)=O)c2c1` [melatonin]: the “life of the C57B16 mouse” value with C57B16 mice was 871 ± 30.5 days. Regarding ezetimibe-glucuronide, the estimated terminal half-life entry in data set [1] (po) was “approximately 22 hours”.

Source of the values: patent publication US20100119525A1 (priority 2005, published 2010).
